Measured values: ChEMBL document CHEMBL4038297, “Fluorinated tranylcypromine analogues as inhibitors of lysine-specific demethylase 1 (LSD1, KDM1A)” (Bioorg Med Chem Lett, 2017)

Assays:
[1] = target: Lysine-specific histone demethylase 1A (Homo sapiens, UniProt O60341); test: Inhibition of recombinant human His-tagged LSD1 expressed in Escherichia coli BL21 (DE3) using H3K4me2 peptide as substrate preincubated for 10 mins followed by substrate addition measured after 20 mins by Amplex red dye based fluorescence assay
THP-1 = test: Antiproliferative activity against human THP1 cells after 72 hrs by CellTitre-Glo assay; details: THP-1, 72 h
MV4-11 = test: Antiproliferative activity against human MV411 cells after 72 hrs by CellTitre-Glo assay; details: MV4-11, 72 h

IC50 [1]	IC50 (THP-1)	IC50 (MV4-11)	SMILES
> 25 µM			Cc1ccc([C@]2(F)C[C@@H]2N)cc1
> 25 µM			COc1ccc([C@]2(F)C[C@@H]2N)cc1
> 25 µM			N[C@H]1C[C@]1(F)c1ccccc1
> 25 µM			COc1ccc([C@@]2(F)C[C@@H]2N)cc1
> 25 µM			N[C@H]1C[C@@]1(F)c1ccccc1
> 50 µM			CCOc1ccc([C@@]2(F)C[C@@H]2N)cc1 (relative stereo)
> 50 µM			N[C@H]1C[C@]1(F)c1ccc([N+](=O)[O-])cc1 (relative stereo)
> 50 µM			CCOc1ccc([C@]2(F)C[C@@H]2N)cc1 (relative stereo)

The next lines start with the compound.

SMILES	IC50 [1]	IC50 (THP-1)	IC50 (MV4-11)
N[C@H]1C[C@@]1(F)c1ccc(F)cc1	> 25 µM		
N[C@H]1C[C@]1(F)c1ccc(F)cc1	> 25 µM		
Cc1ccc([C@@]2(F)C[C@@H]2N)cc1	> 25 µM		
N[C@@H]1C[C@H]1c1ccccc1.N[C@H]1C[C@@H]1c1ccccc1 (racemic) [TRANYLCYPROMINE]		810 µM	630 µM
N[C@H]1C[C@@]1(F)c1ccc([N+](=O)[O-])cc1 (relative stereo)	> 50 µM		
N[C@H]1C[C@]1(F)c1cccc(F)c1 (relative stereo)		1.6 µM	4.9 µM
N[C@H]1C[C@@]1(F)c1cccc(F)c1 (relative stereo)		7 µM	8.2 µM
COc1cccc([C@@]2(F)C[C@@H]2N)c1 (relative stereo)		8.5 µM	1.9 µM
N[C@H]1C[C@]1(F)c1cccc([N+](=O)[O-])c1 (relative stereo)		> 30 µM	> 30 µM
